Measurements reported in article PMC9338045, “An acquired phosphatidylinositol 4-phosphate transport initiates T-cell deterioration and leukemogenesis” (Nature Communications, 2022).
Read-outs that look alike come from different tables or passages of the source.

Experiments:
[1] = molecular target: T1, ORP4L (Homo sapiens, UniProt Q969R2); assay: SPR (Biacore 8K, protein immobilised on CM5 by amine coupling, kon/koff); format: binding; details: PBST pH 7.4, 25 °C; acyl chains of PI(4)P not told for this test (diC8 named only for the competition test)
T1 construct: gene OSBP2; full-length cDNA in pGEX-4T-1, E. coli Rosetta(DE3), GST fusion, GST tag removed by thrombin
T1 sequence (Q969R2 1-916): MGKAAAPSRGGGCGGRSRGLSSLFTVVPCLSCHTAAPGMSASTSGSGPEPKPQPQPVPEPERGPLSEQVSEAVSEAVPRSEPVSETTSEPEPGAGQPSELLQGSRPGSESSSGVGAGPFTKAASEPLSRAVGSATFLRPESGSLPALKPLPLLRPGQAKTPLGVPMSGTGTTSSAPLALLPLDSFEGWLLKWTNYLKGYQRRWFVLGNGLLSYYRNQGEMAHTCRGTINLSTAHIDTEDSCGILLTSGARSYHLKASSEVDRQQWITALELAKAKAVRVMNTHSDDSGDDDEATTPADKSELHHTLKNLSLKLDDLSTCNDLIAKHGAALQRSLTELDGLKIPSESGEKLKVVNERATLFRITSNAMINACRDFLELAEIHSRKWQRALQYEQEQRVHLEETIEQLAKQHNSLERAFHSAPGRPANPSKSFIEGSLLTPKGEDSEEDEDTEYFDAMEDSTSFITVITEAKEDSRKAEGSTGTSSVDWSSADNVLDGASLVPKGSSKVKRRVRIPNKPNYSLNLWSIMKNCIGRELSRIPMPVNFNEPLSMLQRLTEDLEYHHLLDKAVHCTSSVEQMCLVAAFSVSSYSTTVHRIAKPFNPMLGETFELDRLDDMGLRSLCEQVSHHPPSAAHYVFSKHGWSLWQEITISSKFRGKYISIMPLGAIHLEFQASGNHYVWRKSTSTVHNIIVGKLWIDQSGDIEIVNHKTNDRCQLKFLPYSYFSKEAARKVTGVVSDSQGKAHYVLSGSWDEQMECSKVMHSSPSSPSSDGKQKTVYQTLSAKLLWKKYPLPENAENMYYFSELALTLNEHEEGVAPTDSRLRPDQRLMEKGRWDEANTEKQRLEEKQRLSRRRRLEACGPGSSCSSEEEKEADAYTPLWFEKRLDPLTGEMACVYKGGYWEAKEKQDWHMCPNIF

[2] = molecular target: T2, OSBP (Homo sapiens, UniProt P22059); assay: as above; format: binding
T2 construct: full-length cDNA in pGEX-4T-1, E. coli Rosetta(DE3), GST fusion, GST tag removed by thrombin
T2 sequence (P22059 1-807): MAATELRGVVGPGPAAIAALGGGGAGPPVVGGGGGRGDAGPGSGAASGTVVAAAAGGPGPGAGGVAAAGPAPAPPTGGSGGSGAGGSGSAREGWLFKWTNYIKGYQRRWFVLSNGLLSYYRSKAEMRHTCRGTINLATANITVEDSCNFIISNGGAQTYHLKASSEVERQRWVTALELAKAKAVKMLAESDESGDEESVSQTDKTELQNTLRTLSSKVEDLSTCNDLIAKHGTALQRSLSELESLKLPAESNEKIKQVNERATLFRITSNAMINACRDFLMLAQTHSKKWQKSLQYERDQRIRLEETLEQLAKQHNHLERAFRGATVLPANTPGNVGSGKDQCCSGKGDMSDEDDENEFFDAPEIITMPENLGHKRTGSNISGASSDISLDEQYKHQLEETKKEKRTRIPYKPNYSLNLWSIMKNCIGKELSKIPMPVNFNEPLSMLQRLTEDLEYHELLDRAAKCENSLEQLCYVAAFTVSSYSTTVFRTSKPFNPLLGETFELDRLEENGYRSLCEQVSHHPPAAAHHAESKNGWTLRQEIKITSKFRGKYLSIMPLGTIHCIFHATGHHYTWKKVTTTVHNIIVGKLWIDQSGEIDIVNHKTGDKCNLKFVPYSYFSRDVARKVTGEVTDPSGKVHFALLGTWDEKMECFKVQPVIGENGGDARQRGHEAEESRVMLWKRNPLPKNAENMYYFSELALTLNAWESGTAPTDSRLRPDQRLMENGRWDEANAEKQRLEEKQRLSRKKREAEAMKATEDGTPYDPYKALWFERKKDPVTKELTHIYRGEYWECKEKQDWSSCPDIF

Row | Compound | Kd [1] | Kd ([2]; PBST pH 7.4, 25 °C, acyl chains of PI(4)P not told for this test (diC8 named only for the competition test)) | Kd [2]
1 | PI(4)P | 12.7 ± 2.1 µM | 4.3 ± 1.2 µM | –
2 | COc1ccc(C(=O)O[C@H]2[C@H](O[C@@H]3[C@@H](OC(C)=O)[C@H](O[C@H]4C[C@H]5[C@@H]6CC=C7C[C@@H](O)CC[C@]7(C)[C@H]6CC[C@]5(C)[C@@]4(O)[C@H](C)C(=O)CCC(C)C)OC[C@@H]3O)OC[C@@H](O)[C@@H]2O)cc1 [OSW-1] | – | – | 1.8 ± 0.37 µM
